Experimental findings from patent US8859571B2, “Quinazoline compounds” (GlaxoSmithKline LLC, priority 2009, dated 2014) are described below.

The target in this test is T1, Full length human TNNI3K (hTNNI3K) (Homo sapiens, UniProt Q59H18).
T1 construct: His-MBP-TEV-Full length human TNNI3K (hTNNI3K); His (N); MBP (N); TEV cleavage site (N); made in house; host or cells: baculovirus system (printed 'Baculokinase system')
T1 sequence (Q59H18 1-835): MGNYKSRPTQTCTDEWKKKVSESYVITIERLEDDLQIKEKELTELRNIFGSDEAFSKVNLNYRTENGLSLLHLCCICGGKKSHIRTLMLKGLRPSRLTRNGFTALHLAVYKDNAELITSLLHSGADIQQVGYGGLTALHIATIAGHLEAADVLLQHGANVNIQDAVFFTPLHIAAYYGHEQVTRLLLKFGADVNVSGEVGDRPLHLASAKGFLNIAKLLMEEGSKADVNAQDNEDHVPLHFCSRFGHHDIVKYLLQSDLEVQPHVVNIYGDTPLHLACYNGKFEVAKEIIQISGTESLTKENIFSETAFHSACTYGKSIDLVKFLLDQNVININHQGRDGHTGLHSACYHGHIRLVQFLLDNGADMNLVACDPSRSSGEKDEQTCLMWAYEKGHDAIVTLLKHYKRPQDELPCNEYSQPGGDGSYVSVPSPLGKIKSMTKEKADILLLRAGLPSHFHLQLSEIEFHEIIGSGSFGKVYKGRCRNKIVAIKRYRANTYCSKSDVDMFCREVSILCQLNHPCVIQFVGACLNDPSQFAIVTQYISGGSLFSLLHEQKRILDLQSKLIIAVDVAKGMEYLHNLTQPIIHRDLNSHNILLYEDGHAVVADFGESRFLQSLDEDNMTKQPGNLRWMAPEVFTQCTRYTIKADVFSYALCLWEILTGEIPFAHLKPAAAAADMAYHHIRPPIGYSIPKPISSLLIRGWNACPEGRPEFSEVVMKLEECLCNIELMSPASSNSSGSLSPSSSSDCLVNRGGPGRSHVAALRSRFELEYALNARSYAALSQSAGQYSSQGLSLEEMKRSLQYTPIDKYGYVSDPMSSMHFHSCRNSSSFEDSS
Briefly: Fluorescent polarization assay of compound inhibition on hTNNI3K ATP binding (Biological Assay Method I). Particulars: displacement of fluorescent ligand from hTNNI3K ATP binding pocket; mean of a minimum of 2 experiments; read-out: pXC50 (the source's name) (converted). The source says: Materials: His-MBP-TEV-Full length human TNNI3K (hTNNI3K) was expressed in Baculokinase system and purified from amylase affinity column followed by Superdex200. The fluorescent ligand 5-({[2-({[3-({4-[(5-hydroxy-2-methylphenyl)amino]-2-pyrimidinyl}amino)phenyl]carbonyl}amino)ethyl]amino}carbonyl)-2-(6-hydroxy-3-oxo-3H-xanthen-9-yl)benzoic acid was used. The preparation of this fluorescent ligand is disclosed in U.S. Provisional Patent Application No. 61/237,815 filed Aug. 28, 2009, the disclosure of which is incorporated by reference herein. The other buffer components, including MgCl2 (Catalog Number M1028), Bis-Tris (Catalog Number B7535), DTT (Catalog Number D9779) and Chaps (Catalog Number C3023) were purchased from Sigma-Aldrich.
Biological Assay Method I:
A fluorescent polarization assay was used to determine does response of compound inhibition on hTNNI3K ATP binding.
Solution 1: Ten (10) mL of a 5 nM 5-({[2-({[3-({4-[(5-hydroxy-2-methylphenyl)amino]-2-pyrimidinyl}amino)phenyl]carbonyl}amino)ethyl]amino}carbonyl)-2-(6-hydroxy-3-oxo-3H-xanthen-9-yl)benzoic acid solution (Solution 1) was prepared by mixing 5 μL of 1M DTT and 80 μL of 10% (w/v) Chaps and 5 μL of a 10 μM 5-({[2-({[3-({4-[(5-hydroxy-2-methylphenyl)amino]-2-pyrimidinyl}amino)phenyl]carbonyl}amino) ethyl]amino}carbonyl)-2-(6-hydroxy-3-oxo-3H-xanthen-9-yl)benzoic acid stock solution into 9910 μL buffer (20 mM Tris, 15 mM MgCl2, pH 7.5). (Stock solution: 10 μM solution of 5-({[2-({[3-({4-[(5-hydroxy-2-methylphenyl)amino]-2-pyrimidinyl}amino)phenyl]carbonyl}amino)ethyl]amino}carbonyl)-2-(6-hydroxy-3-oxo-3H-xanthen-9-yl)benzoic acid in 100% DMSO)
Solution 2 was formed by mixing 53.8 μL of 2.6 μM hTNNI3K with a 6946.2 μL aliquot of Solution 1 (the above 5-({[2-({[3-({4-[(5-hydroxy-2-methylphenyl)amino]-2-pyrimidinyl}amino)phenyl]carbonyl}amino)ethyl]amino}carbonyl)-2-(6-hydroxy-3-oxo-3H-xanthen-9-yl)benzoic acid solution) to make up a 7 mL of mixture of hTNNI3K and 5-({[2-({[3-({4-[(5-hydroxy-2-methylphenyl)amino]-2-pyrimidinyl}amino)phenyl]carbonyl}amino)ethyl]amino}carbonyl)-2-(6-hydroxy-3-oxo-3H-xanthen-9-yl)benzoic acid (Solution 2).
Fifty (50) nL of inhibitors in DMSO (or DMSO controls) were stamped into a 384-well low volume Greiner black plate, followed by addition of 5 μL of Solution 1 to column 18 and 5 μL Solution 2 to columns 1-17 and 19-24 of the plate. The plate was then spun at 500 rpm for 30 seconds and incubated at room temperature for 60 minutes. After that, the fluorescent polarization was measured on Analyst (ex/em: 485/530 nm, Dichroic: 505). For dose response experiments, normalized data were fit by ABASE/XC50 and pXC50=(log((b−y)/(y−a)))/d−log(x), where x is the compound concentration and y is the % activity at specified compound concentration, a is the minimum % activity, b is the maximum % activity, and d is the Hill slope.
The pXC50s are averaged to determine a mean value, for a minimum of 2 experiments.

Structures can show the parent of a compound that is named as a salt.

For `CNS(=O)(=O)c1ccc(N(C)C)c(Nc2ncnc3cc(OC)cc(OC)c23)c1` [Example 32, 3-{[5,7-bis(methyloxy)-4-quinazolinyl]amino}-4-(dimethylamino)-N-methylbenzenesulfonamide], the IC50 is 1 to 10 nM.

For the compound `CNS(=O)(=O)c1ccc(N(C)CC(F)(F)F)c(Nc2ncnc3cc(OC)c(OC)cc23)c1` [Example 35, 3-{[6,7-bis(methyloxy)-4-quinazolinyl]amino}-N-methyl-4-[methyl(2,2,2-trifluoroethyl)amino] benzenesulfonamide trifluoroacetate], the IC50 is 1 to 10 nM.

For `CNS(=O)(=O)c1ccc(N(C)CC(F)(F)F)c(Nc2ncnc3cc(OC)cc(OC)c23)c1` [Example 36, 3-{[5,7-bis(methyloxy)-4-quinazolinyl]amino}-N-methyl-4-[methyl(2,2,2-trifluoroethyl)amino] benzenesulfonamide hydrochloride], the IC50 was 10 to 100 nM.

In the case of `CNS(=O)(=O)c1ccc(OC)c(Nc2ncnc3cc(OC)cc(OC)c23)c1` [Example 37, 3-{[5,7-bis(methyloxy)-4-quinazolinyl]amino}-N-methyl-4-(methyloxy) benzenesulfonamide hydrochloride], the IC50 is 1 to 10 nM.

For `CNS(=O)(=O)c1ccc(F)c(Nc2ncnc3cc(OC)cc(OC)c23)c1` [Example 38, 3-{[5,7-bis(methyloxy)-4-quinazolinyl]amino}-4-fluoro-N-methylbenzenesulfonamide hydrochloride], the IC50 is 10 to 100 nM.

Consider `CNS(=O)(=O)c1ccc(Cl)c(Nc2ncnc3cc(OC)cc(OC)c23)c1` [Example 39, 3-{[5,7-bis(methyloxy)-4-quinazolinyl]amino}-4-chloro-N-methylbenzenesulfonamide hydrochloride], for which the IC50 is 10 to 100 nM.

`CNS(=O)(=O)c1ccc(N2CCOCC2)c(Nc2ncnc3cc(OC)cc(OC)c23)c1` [Example 40, 3-{[5,7-bis(methyloxy)-4-quinazolinyl]amino}-N-methyl-4-(4-morpholinyl) benzenesulfonamide hydrochloride]: the IC50 is 10 to 100 nM.

For `CCOc1cc2c(Nc3cc(S(=O)(=O)NC)ccc3OCC(F)(F)F)ncnc2cc1OC` [Example 42, 3-{[6-(ethyloxy)-7-(methyloxy)-4-quinazolinyl]amino}-N-methyl-4-[(2,2,2-trifluoroethyl)oxy] benzenesulfonamide hydrochloride], the IC50 is 10 to 100 nM.

`CNS(=O)(=O)c1ccc(OCC(F)(F)F)c(Nc2ncnc3cc(OC)c(OC(C)C)cc23)c1` [Example 44, N-methyl-3-{[6-[(1-methylethyl)oxy]-7-(methyloxy)-4-quinazolinyl]amino}-4-[(2,2,2-trifluoroethyl)oxy] benzenesulfonamide hydrochloride]: the IC50 was 10 to 100 nM.

For the compound `CNS(=O)(=O)c1ccc(OCC(F)(F)F)c(Nc2ncnc3cc(OCCCCl)ccc23)c1` [Example 45, 3-({7-[(3-chloropropyl)oxy]-4-quinazolinyl}amino)-N-methyl-4-[(2,2,2-trifluoroethyl)oxy] benzenesulfonamide], the IC50 was 10 to 100 nM.

In the case of `CCOc1cc(OC)cc2ncnc(Nc3cc(S(=O)(=O)NC)ccc3OCC(F)(F)F)c12` [Example 46, 3-{[5-(ethyloxy)-7-(methyloxy)-4-quinazolinyl]amino}-N-methyl-4-[(2,2,2-trifluoroethyl)oxy] benzenesulfonamide], the IC50 is 1 to 10 nM.

Regarding `CNS(=O)(=O)c1ccc(OCC(F)(F)F)c(Nc2ncnc3cc(OC)cc(OC(C)C)c23)c1` [Example 47, N-methyl-3-{[5-[(1-methylethyl)oxy]-7-(methyloxy)-4-quinazolinyl]amino}-4-[(2,2,2-trifluoroethyl)oxy] benzenesulfonamide], the IC50 is 10 to 100 nM.

As to `CNS(=O)(=O)c1ccc(OCC(F)(F)F)c(Nc2ncnc3cc(OC)c(OC)c(OC)c23)c1` [Example 48, N-methyl-4-[(2,2,2-trifluoroethyl)oxy]-3-{[5,6,7-tris(methyloxy)-4-quinazolinyl]amino}benzene sulfonamide hydrochloride], the IC50 is 1 to 10 nM.

On to `CNS(=O)(=O)c1ccc(OC(C)C(F)(F)F)c(Nc2ncnc3cc(OC)cc(OC)c23)c1` (centres unmarked) [Example 49, 3-{[5,7-bis(methyloxy)-4-quinazolinyl]amino}-N-methyl-4-[(2,2,2-trifluoro-1-methylethyl)oxy] benzenesulfonamide trifluoroacetate], for which the IC50 is 1 to 10 nM.

As for `CNS(=O)(=O)c1cc(Nc2ncnc3cc(OC)cc(OC)c23)c(OCC(F)(F)F)cc1F` [Example 50, 5-{[5,7-bis(methyloxy)-4-quinazolinyl]amino}-2-fluoro-N-methyl-4-[(2,2,2-trifluoroethyl)oxy] benzenesulfonamide trifluoroacetate], the IC50 is 10 to 100 nM.

With `CNS(=O)(=O)c1cc(Nc2ncnc3cc(OC)cc(OC)c23)c(OC)cc1F` [Example 51, 5-{[5,7-bis(methyloxy)-4-quinazolinyl]amino}-2-fluoro-N-methyl-4-(methyloxy) benzenesulfonamide trifluoroacetate], the IC50 is 10 to 100 nM.

`CNS(=O)(=O)c1ccc(SC)c(Nc2ncnc3cc(OC)cc(OC)c23)c1` [Example 53, 3-{[5,7-bis(methyloxy)-4-quinazolinyl]amino}-N-methyl-4-(methylthio) benzenesulfonamide hydrochloride]: the IC50 is 10 to 100 nM.

For the compound `CNS(=O)(=O)c1ccc(OC(F)(F)F)c(Nc2ncnc3cc(OC)cc(OC)c23)c1` [Example 54, 3-{[5,7-bis(methyloxy)-4-quinazolinyl]amino}-N-methyl-4-[(trifluoromethyl)oxy] benzenesulfonamide hydrochloride], the IC50 was 1 to 10 nM.

Take `CNS(=O)(=O)c1ccc(OC(F)(F)F)c(Nc2ncnc3cc(OC)c(OC)c(OC)c23)c1` [Example 55, N-methyl-4-[(trifluoromethyl)oxy]-3-{[5,6,7-tris(methyloxy)-4-quinazolinyl]amino}benzene sulfonamide trifluoroacetate]: the IC50 was 10 to 100 nM.

On to `CNS(=O)(=O)c1cc(Nc2ncnc3cc(OC)cc(OC)c23)c(N(C)C)cc1F` [Example 56, 5-{[5,7-bis(methyloxy)-4-quinazolinyl]amino}-4-(dimethylamino)-2-fluoro-N-methylbenzenesulfonamide hydrochloride], for which the IC50 is 1 to 10 nM.
